# Experimental data from the supplement of paper PMC10307832.
# Compound: O=C(/C=C/c1ccccc1)NC(NC(=S)Nc1cccc2cccnc12)C(Cl)(Cl)Cl [Salubrinal] + CS(=O)(=O)CCNCc1ccc(-c2ccc3ncnc(Nc4ccc(OCc5cccc(F)c5)c(Cl)c4)c3c2)o1 [Lapatinib] (partner 2 µM)
# Test: relative viability (nuclei count vs DMSO), 5 days (fraction); higher = more cells survive
# Details: first compound 0.08 µM
# Procedure, shortened: (§1)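 Lung cancer cell lines were seeded in 1536-well plates and dosed by pin tool the next day, with either a single drug or a fixed anchor-drug dose combined with five library-drug doses (not always all listed) spaced in √10 steps. Five days later, one step fixed the cells and stained their nuclei (final 0.05% Triton X-100, 1% formaldehyde, 1 ug/ml Hoechst), and nuclei were counted on 4× images. Relative viability is the nuclei count in treated wells divided by the count in vehicle wells, and each value is the median of duplicate plates.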
row,Cell Line,relative viability
1,NCI-H727,1.01
2,NCI-H1650,0.805
3,EBC-1,0.191
4,NCI-H1703,1.24
5,NCI-H1993,0.887
6,SW 1573,1.02
7,NCI-H838,1.1
8,NCI-H520,0.921
9,NCI-H2126,0.704
10,EMC-BAC-2,0.823

# Same assay, conditions: first compound 0.253 µM
row,Cell Line,relative viability
1,NCI-H727,0.848
2,NCI-H1650,0.817
3,EBC-1,0.289
4,NCI-H1993,0.866
5,SW 1573,1.14
6,NCI-H838,0.914
7,NCI-H520,0.767
8,NCI-H2126,0.701
9,EMC-BAC-2,0.815

# Same assay, conditions: first compound 0.8 µM
row,Cell Line,relative viability
1,NCI-H727,0.899
2,NCI-H1650,0.9
3,EBC-1,0.187
4,NCI-H1703,1.24
5,NCI-H1993,0.814
6,SW 1573,1.09
7,NCI-H838,1.23
8,NCI-H520,1.25
9,NCI-H2126,0.801
10,EMC-BAC-2,0.947

# Same assay, conditions: first compound 2.53 µM
row,Cell Line,relative viability
1,NCI-H727,0.812
2,NCI-H1650,0.731
3,EBC-1,0.167
4,NCI-H1703,0.917
5,NCI-H1993,1.14
6,SW 1573,1.11
7,NCI-H838,1.03
8,NCI-H520,0.847
9,NCI-H2126,0.82
10,EMC-BAC-2,0.865

# Same assay, conditions: first compound 8 µM
row,Cell Line,relative viability
1,NCI-H727,0.903
2,NCI-H1650,0.953
3,EBC-1,0.198
4,NCI-H1703,0.892
5,NCI-H1993,0.9
6,SW 1573,1.16
7,NCI-H838,0.674
8,NCI-H520,0.769
9,NCI-H2126,0.707
10,EMC-BAC-2,0.938

# Compound: Cc1ccc2nc(NCCN)c3ncc(C)n3c2c1 + CS(=O)(=O)N1CCN(Cc2cc3nc(-c4cccc5[nH]ncc45)nc(N4CCOCC4)c3s2)CC1 [Pictilisib] (partner 1 µM)
# Test: as above
# Details: first compound 0.04 µM
# Procedure, shortened: as §1
row,Cell Line,relative viability
1,NCI-H727,0.288
2,NCI-H1650,0.531
3,EBC-1,0.4
4,NCI-H1703,0.299
5,NCI-H1993,0.804
6,SW 1573,0.449
7,NCI-H838,0.43
8,LCLC-103H,0.534
9,NCI-H520,0.276
10,NCI-H2126,0.512
11,EMC-BAC-2,0.586
12,ChaGo-K-1,0.697
13,NCI-H441,0.557

# Same assay, conditions: first compound 0.1265 µM
row,Cell Line,relative viability
1,NCI-H727,0.443
2,NCI-H1650,0.564
3,EBC-1,0.35
4,NCI-H1703,0.248
5,NCI-H1993,0.648
6,SW 1573,0.577
7,NCI-H838,0.416
8,LCLC-103H,0.644
9,NCI-H520,0.283
10,NCI-H2126,0.512
11,EMC-BAC-2,0.58
12,ChaGo-K-1,0.743
13,NCI-H441,0.464

# Same assay, conditions: first compound 0.4 µM
row,Cell Line,relative viability
1,NCI-H727,0.46
2,NCI-H1650,0.429
3,EBC-1,0.336
4,NCI-H1703,0.257
5,NCI-H1993,0.693
6,SW 1573,0.418
7,NCI-H838,0.409
8,LCLC-103H,0.561
9,NCI-H520,0.282
10,NCI-H2126,0.489
11,EMC-BAC-2,0.554
12,ChaGo-K-1,0.661
13,NCI-H441,0.454

# Same assay, conditions: first compound 1.265 µM
row,Cell Line,relative viability
1,NCI-H727,0.388
2,NCI-H1650,0.527
3,EBC-1,0.246
4,NCI-H1703,0.321
5,NCI-H1993,0.765
6,SW 1573,0.507
7,NCI-H838,0.423
8,LCLC-103H,0.6
9,NCI-H520,0.294
10,NCI-H2126,0.453
11,EMC-BAC-2,0.569
12,ChaGo-K-1,0.671
13,NCI-H441,0.505

# Same assay, conditions: first compound 4 µM
row,Cell Line,relative viability
1,NCI-H727,0.354
2,NCI-H1650,0.515
3,EBC-1,0.263
4,NCI-H1703,0.233
5,NCI-H1993,0.771
6,SW 1573,0.502
7,NCI-H838,0.365
8,LCLC-103H,0.576
9,NCI-H520,0.368
10,NCI-H2126,0.456
11,EMC-BAC-2,0.579
12,ChaGo-K-1,0.443
13,NCI-H441,0.472

# Compound: Cc1ccc2nc(NCCN)c3ncc(C)n3c2c1
# Test: relative viability (nuclei count vs DMSO), 5 days (fraction); higher = more cells survive
# Details: 0.04 µM
# Procedure, shortened: (§2)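 Lung cancer cell lines received five library-drug doses (not always all listed) spaced by √10, pinned on vehicle-anchored 1536-well plates after an overnight stay at 37 °C. Five days later, with no medium change, nuclei were Hoechst-stained, imaged at 4× and counted with MetaXpress. Viability is treated-well nuclei relative to vehicle-well nuclei, as a median across plates. Passing plates had control CV below 25% and at least one doubling.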
row,Cell Line,relative viability
1,NCI-H522,0.882
2,NCI-H2342,1.19
3,NCI-H727,0.969
4,NCI-H1650,0.983
5,EBC-1,1.08
6,NCI-H1703,1.07
7,NCI-H1993,0.948
8,SW 1573,0.989
9,NCI-H838,1.03
10,LCLC-103H,1
11,NCI-H520,1.13
12,NCI-H2126,1.1
13,EMC-BAC-2,1
14,ChaGo-K-1,0.958
15,SW 900,0.878
16,NCI-H441,1.1
17,NCI-H1623,1.01
18,NCI-H1648,0.858

# Same assay, conditions: 0.1265 µM
row,Cell Line,relative viability
1,NCI-H522,1.04
2,NCI-H2342,1.08
3,NCI-H727,0.734
4,NCI-H1650,0.903
5,EBC-1,0.976
6,NCI-H1703,1.07
7,NCI-H1993,0.995
8,SW 1573,1.02
9,NCI-H838,0.951
10,LCLC-103H,0.974
11,NCI-H520,0.912
12,NCI-H2126,0.993
13,EMC-BAC-2,1
14,ChaGo-K-1,1.01
15,SW 900,0.897
16,NCI-H441,1.05
17,NCI-H1623,0.838
18,NCI-H1648,0.903

# Same assay, conditions: 0.4 µM
row,Cell Line,relative viability
1,NCI-H522,0.909
2,NCI-H2342,0.989
3,NCI-H727,1.14
4,NCI-H1650,0.865
5,EBC-1,0.934
6,NCI-H1703,1.01
7,NCI-H1993,0.779
8,SW 1573,1
9,NCI-H838,0.912
10,LCLC-103H,0.918
11,NCI-H520,0.933
12,NCI-H2126,0.958
13,EMC-BAC-2,0.966
14,ChaGo-K-1,1.05
15,SW 900,0.584
16,NCI-H441,1.09
17,NCI-H1623,0.961
18,NCI-H1648,0.918

# Same assay, conditions: 1.265 µM
row,Cell Line,relative viability
1,NCI-H522,1.03
2,NCI-H2342,1.08
3,NCI-H727,0.949
4,NCI-H1650,0.915
5,EBC-1,0.946
6,NCI-H1703,1.16
7,NCI-H1993,0.941
8,SW 1573,1.05
9,NCI-H838,0.907
10,LCLC-103H,1.08
11,NCI-H520,0.915
12,NCI-H2126,0.995
13,EMC-BAC-2,1.08
14,ChaGo-K-1,1.01
15,SW 900,0.779
16,NCI-H441,1.11
17,NCI-H1623,0.887
18,NCI-H1648,0.615

# Same assay, conditions: 4 µM
row,Cell Line,relative viability
1,NCI-H522,1.02
2,NCI-H2342,0.841
3,NCI-H727,0.994
4,NCI-H1650,0.772
5,EBC-1,0.79
6,NCI-H1703,0.91
7,NCI-H1993,0.789
8,SW 1573,0.776
9,NCI-H838,0.929
10,LCLC-103H,0.955
11,NCI-H520,0.845
12,NCI-H2126,0.893
13,EMC-BAC-2,0.946
14,ChaGo-K-1,0.874
15,SW 900,0.941
16,NCI-H441,0.964
17,NCI-H1623,0.937
18,NCI-H1648,0.679

# Compound: O=C(/C=C/c1ccccc1)NC(NC(=S)Nc1cccc2cccnc12)C(Cl)(Cl)Cl [Salubrinal]
# Test: as above
# Details: 0.08 µM
# Procedure, shortened: as §2
row,Cell Line,relative viability
1,NCI-H522,0.947
2,NCI-H2342,1.04
3,NCI-H727,1.01
4,NCI-H1650,1.1
5,EBC-1,1.02
6,NCI-H1703,1.12
7,NCI-H1993,0.98
8,SW 1573,1.07
9,NCI-H838,1.1
10,LCLC-103H,1.07
11,NCI-H520,1.05
12,NCI-H2126,1.07
13,EMC-BAC-2,0.934
14,ChaGo-K-1,1.05
15,SW 900,1.06
16,NCI-H441,1.25
17,NCI-H1623,1.08
18,NCI-H1648,0.921

# Same assay, conditions: 0.253 µM
row,Cell Line,relative viability
1,NCI-H522,0.819
2,NCI-H2342,0.88
3,NCI-H727,1.45
4,NCI-H1650,0.795
5,EBC-1,0.923
6,NCI-H1703,1.03
7,NCI-H1993,0.857
8,SW 1573,1.05
9,NCI-H838,0.987
10,LCLC-103H,0.932
11,NCI-H520,1.01
12,NCI-H2126,0.921
13,EMC-BAC-2,1.06
14,ChaGo-K-1,0.912
15,SW 900,0.718
16,NCI-H441,1.02
17,NCI-H1623,1.18
18,NCI-H1648,0.788

# Same assay, conditions: 0.8 µM
row,Cell Line,relative viability
1,NCI-H522,1.1
2,NCI-H2342,1.07
3,NCI-H727,1.11
4,NCI-H1650,1.03
5,EBC-1,1.12
6,NCI-H1703,0.994
7,NCI-H1993,1.02
8,SW 1573,1.03
9,NCI-H838,1.07
10,LCLC-103H,1.05
11,NCI-H520,1.07
12,NCI-H2126,1.08
13,EMC-BAC-2,1.25
14,ChaGo-K-1,1.15
15,SW 900,0.941
16,NCI-H441,1.34
17,NCI-H1623,0.949
18,NCI-H1648,0.741

# Same assay, conditions: 2.53 µM
row,Cell Line,relative viability
1,NCI-H522,1.02
2,NCI-H2342,1.03
3,NCI-H727,0.827
4,NCI-H1650,0.893
5,EBC-1,0.887
6,NCI-H1703,0.881
7,NCI-H1993,1
8,SW 1573,0.998
9,NCI-H838,1.07
10,LCLC-103H,1.09
11,NCI-H520,1.03
12,NCI-H2126,1.05
13,EMC-BAC-2,0.996
14,ChaGo-K-1,1.01
15,SW 900,0.933
16,NCI-H441,1.03
17,NCI-H1623,1.1
18,NCI-H1648,0.741

# Same assay, conditions: 8 µM
row,Cell Line,relative viability
1,NCI-H522,0.921
2,NCI-H2342,0.858
3,NCI-H727,0.797
4,NCI-H1650,0.912
5,EBC-1,0.902
6,NCI-H1703,0.942
7,NCI-H1993,1.1
8,SW 1573,0.994
9,NCI-H838,0.922
10,LCLC-103H,0.935
11,NCI-H520,1.14
12,NCI-H2126,0.985
13,EMC-BAC-2,0.973
14,ChaGo-K-1,0.922
15,SW 900,1.04
16,NCI-H441,0.784
17,NCI-H1623,0.997
18,NCI-H1648,0.356
